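Dose response: 5 concentrations. Exposure: 48 h. Format: 96-well plates. Endpoint: linear interpolation; highest concentration if not reached. The concentration for 50% growth inhibition is given as GI50.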 Active and inactive are the calls of the source. Rule as the data show it: active = GI50 up to about 1.1 µM and inactive = higher.
Key:
Experiment in all cases: inhibition of tumour cell growth, NCI panel, 48 h
A549 = test system: A549
DU-145 = test system: DU-145
HCC 2998 = test system: HCC 2998
K562 = test system: K562
KM12 = test system: KM12
M14 = test system: M14
NCI-H226 = test system: NCI-H226
NCI-H23 = test system: NCI-H23
OVCAR-3 = test system: OVCAR-3
OVCAR-5 = test system: OVCAR-5
RPMI-8226 = test system: RPMI-8226
SF-295 = test system: SF-295
SK-OV-3 = test system: SK-OV-3
SNB-75 = test system: SNB-75
SW-620 = test system: SW-620
T47D = test system: T47D
U-251 = test system: U-251
UACC-62 = test system: UACC-62
BT-549 = test system: BT-549

| Compound | GI50 (A549) | GI50 (DU-145) | GI50 (HCC 2998) | GI50 (K562) | GI50 (KM12) | GI50 (M14) | GI50 (NCI-H226) | GI50 (NCI-H23) | GI50 (OVCAR-3) | GI50 (OVCAR-5) | GI50 (RPMI-8226) | GI50 (SF-295) | GI50 (SK-OV-3) | GI50 (SNB-75) | GI50 (SW-620) | GI50 (T47D) | GI50 (U-251) | GI50 (UACC-62) | GI50 (BT-549) |
| --- | --- | --- | --- | --- | --- | --- | --- | --- | --- | --- | --- | --- | --- | --- | --- | --- | --- | --- | --- |
| C#CC1=CC(=O)C(OC)=CC1=O | 33.9 µM (inactive) | 17.8 µM (inactive) | 30.1 µM (inactive) | 5.06 µM (inactive) | 58.7 µM (inactive) | 16.5 µM (inactive) | 19.3 µM (inactive) | 20.9 µM (inactive) | 33.5 µM (inactive) | 33.5 µM (inactive) | 17.8 µM (inactive) | 29.4 µM (inactive) | > 100 µM (inactive) | < 0.01 µM (active) | 17.5 µM (inactive) | 23 µM (inactive) | 31.9 µM (inactive) | 15.7 µM (inactive) |  |
| COC(=O)/C=C(\C)C(=O)N(C)c1ccccc1I | > 100 µM (inactive) | > 100 µM (inactive) | > 100 µM (inactive) | > 100 µM (inactive) | > 100 µM (inactive) | > 100 µM (inactive) | > 100 µM (inactive) | > 100 µM (inactive) | > 100 µM (inactive) | > 100 µM (inactive) | > 100 µM (inactive) | > 100 µM (inactive) | > 100 µM (inactive) | 76.9 µM (inactive) | > 100 µM (inactive) | > 100 µM (inactive) | > 100 µM (inactive) | > 100 µM (inactive) |  |
| O=c1c2ccccc2[nH]c2c(Cl)cc(Cl)c(N3CCCCC3)c12 | 33.2 µM (inactive) |  | 31.9 µM (inactive) | > 10 µM (inactive) | 19.1 µM (inactive) | 27.3 µM (inactive) | 23.7 µM (inactive) | 24.1 µM (inactive) | 31.1 µM (inactive) | 34.5 µM (inactive) | 29.9 µM (inactive) | 32.4 µM (inactive) | 62.4 µM (inactive) | 30.1 µM (inactive) | 35.4 µM (inactive) | 50.6 µM (inactive) | 24.4 µM (inactive) | > 10 µM (inactive) | 43.5 µM (inactive) |
| COc1ccc(N2C(=O)/C(=C\c3cc(OC)c(OC)c(OC)c3)S(=O)(=O)C2c2ccccc2)cc1 (stereo unspecified) | 26.2 µM (inactive) | 71.3 µM (inactive) | 89.3 µM (inactive) | 12.7 µM (inactive) | 29.2 µM (inactive) | 19.4 µM (inactive) | 30.8 µM (inactive) | 25.8 µM (inactive) | 27 µM (inactive) |  | 12.2 µM (inactive) | 21.2 µM (inactive) | 37.5 µM (inactive) |  | 48.6 µM (inactive) | 24.7 µM (inactive) | 11.3 µM (inactive) | 21.6 µM (inactive) | 22 µM (inactive) |
| CC1=CP(=O)(c2c(C(C)C)cc(C(C)C)cc2C(C)C)CCC1Cl (stereo unspecified) | 14.1 µM (inactive) | 19.6 µM (inactive) |  | 10.2 µM (inactive) | 17.3 µM (inactive) | 14 µM (inactive) | 19.1 µM (inactive) | 16.6 µM (inactive) | 10.1 µM (inactive) | 16.4 µM (inactive) | 13.3 µM (inactive) | 12.4 µM (inactive) | 19.4 µM (inactive) | 14 µM (inactive) | 21.6 µM (inactive) | 11.6 µM (inactive) | 14.8 µM (inactive) | 12 µM (inactive) | 17.1 µM (inactive) |
| O=C1C(/C=N/CCc2c[nH]c3ccccc23)C(C(F)(F)F)=NN1c1nc2ccccc2s1 (stereo unspecified) | 18.3 µM (inactive) | 23.3 µM (inactive) |  | 29.2 µM (inactive) |  | 30.7 µM (inactive) | 26.4 µM (inactive) | 30.8 µM (inactive) | 20.7 µM (inactive) | 29.2 µM (inactive) | 22.2 µM (inactive) | 24 µM (inactive) | 25.3 µM (inactive) | 24.8 µM (inactive) | 38.9 µM (inactive) | 0.664 µM (active) | 34.8 µM (inactive) | 19.5 µM (inactive) | 25.3 µM (inactive) |
| O/N=C/C1c2ccccc2-c2ccccc21 | 19.2 µM (inactive) | 20.8 µM (inactive) | 15.9 µM (inactive) | 29.9 µM (inactive) | 17.4 µM (inactive) | 16.9 µM (inactive) | 15 µM (inactive) | 17.9 µM (inactive) | 16.1 µM (inactive) |  | 21.5 µM (inactive) | 22.5 µM (inactive) | 14.4 µM (inactive) |  | 16.6 µM (inactive) | 19.3 µM (inactive) | 19.4 µM (inactive) | 15 µM (inactive) | 16.9 µM (inactive) |
| CC(C)(C)c1cc(C(=O)C2Cc3ccccc3C(=O)O2)cc(C(C)(C)C)c1O (stereo unspecified) | 13.1 µM (inactive) | 14.8 µM (inactive) |  | 11.4 µM (inactive) | 12 µM (inactive) | 12.6 µM (inactive) | 17.9 µM (inactive) | 13.9 µM (inactive) | 12.2 µM (inactive) | 16.6 µM (inactive) | 5.93 µM (inactive) | 14.1 µM (inactive) | 24 µM (inactive) | 17.3 µM (inactive) | 10.3 µM (inactive) | 16.5 µM (inactive) | 10.5 µM (inactive) | 12.1 µM (inactive) | 10.5 µM (inactive) |
| O=C(NCCCl)NCc1ccccc1 | > 100 µM (inactive) | > 100 µM (inactive) | > 100 µM (inactive) | > 100 µM (inactive) | > 100 µM (inactive) |  | > 100 µM (inactive) | > 100 µM (inactive) | > 100 µM (inactive) | > 100 µM (inactive) | > 100 µM (inactive) | > 100 µM (inactive) | > 100 µM (inactive) | > 100 µM (inactive) | > 100 µM (inactive) | > 100 µM (inactive) | > 100 µM (inactive) | > 100 µM (inactive) |  |
| O=c1oc2cc(/N=C/c3ccc4c(c3)OCO4)ccc2c2ccccc12 | > 100 µM (inactive) | > 100 µM (inactive) |  | > 100 µM (inactive) | > 100 µM (inactive) | > 100 µM (inactive) | > 100 µM (inactive) | > 100 µM (inactive) | > 100 µM (inactive) | > 100 µM (inactive) |  | 58.6 µM (inactive) | 34.1 µM (inactive) | 15 µM (inactive) | 97.9 µM (inactive) | 43.7 µM (inactive) | 43.1 µM (inactive) | 55.8 µM (inactive) | > 100 µM (inactive) |
| Cn1[nH]nn/c1=N\N=C\c1ccccc1 | > 10 µM (inactive) | > 10 µM (inactive) | > 10 µM (inactive) | > 10 µM (inactive) | > 10 µM (inactive) | > 10 µM (inactive) | > 10 µM (inactive) | > 10 µM (inactive) | > 10 µM (inactive) | > 10 µM (inactive) | > 10 µM (inactive) | > 10 µM (inactive) | > 10 µM (inactive) | > 10 µM (inactive) | > 10 µM (inactive) | > 10 µM (inactive) | > 10 µM (inactive) | > 10 µM (inactive) |  |
| COC(=O)[C@@H]1CN(C(C)=O)C(=O)N1 | > 100 µM (inactive) | > 100 µM (inactive) | > 100 µM (inactive) | > 100 µM (inactive) | > 100 µM (inactive) | > 100 µM (inactive) | > 100 µM (inactive) | > 100 µM (inactive) | > 100 µM (inactive) | > 100 µM (inactive) | > 100 µM (inactive) | > 100 µM (inactive) | > 100 µM (inactive) | > 100 µM (inactive) | > 100 µM (inactive) | 43.9 µM (inactive) | > 100 µM (inactive) | > 100 µM (inactive) |  |

Reference: ChEMBL document CHEMBL1201862, “PubChem BioAssay data set” (2004)
